Measured values from patent US6893664B1, “Particle delivery techniques” (Powderject Research Limited, priority 1996, dated 2005).

Columns and labels:
Type in all cases: physicochemical
[1] = Envelope density by GeoPyc Model 1360 Envelope Density Analyzer; conditions: for change of envelope density by compression, milling, sieving: relative to both the freeze-dried and the sieved preparations
Procedure: (§1) Trehalose 45H3830 (Sigma) and mannitol K91698380-703 (Merck) were either sieved, or freeze dried, compacted, ground and then sieved. A range of the resulting preparations were then analyzed for particle size and density measurements.
(§2) Portions of each sugar excipient were sieved to obtain preparations having reduced particle sizes. Sieving was carried out using stainless steel sieves for two hours at 3 mm amplitude using three sieve sizes (75 μm, 53 μm and 38 μm) without additional processing.
(§3) Alternatively, portions of each sugar excipient were processed using the methods of the invention as follows. 40 g of each of the sugars was dissolved in water, flash frozen, and then freeze dried over night. Samples of each freeze dried preparation were retained, and the remainder compacted in a 13 mm compression die (15,000 lbs/inch^2 for 45 seconds) into discs. The mannitol discs were ground using mortar and pestle, and then sieved as described above at 3 mm amplitude, using three sieve sizes. The trehalose discs were first ground in a vibratory ball mill (Retsch mill), then ground by mortar and pestle and sieved as above.
(§4) Samples from each of the above-described excipient preparations were then analyzed for absolute and envelope density. Absolute density was determined using helium pycnometry, and envelope density was determined using a GeoPyc™ Model 1360 Envelope Density Analyzer (Micromeritics Instrument Corp.).

[2] = Absolute density by helium pycnometry
Procedure: as §1, §2, §3, §4

[3] = Densification of excipients, comparison of compacted particles with like weights of non-densified starting materials; conditions: compacted at 10,000 lbs/in^2 for 30 seconds, ground, sieved > about 50 μm
Procedure: Finely ground powders of pharmaceutical grade mannitol and lactose were obtained and reprocessed using the method of the invention. Particularly, approximately 30 to 50 mg of mannitol or lactose were compacted under pressure using a Carver Laboratory Pellet Press (Model 3620, available from Carver, Inc., Wabash, Ind.). The pressure of compaction was 10,000 lbs/in^2 which was applied for approximately 30 seconds. The resulting compacted pellets were ground using mortar and pestle until visually broken up, and then sieved to select for particles having a size greater than about 50 μm using the methods described in Example 3.

[4] = pretreatment: Freeze Dried, Compressed, Milled, Sieved

| Compound | Density Envelope ([1]; pretreatment: Freeze Dried) [g/mL] | Density Envelope [1, 4] [g/mL] | Density Envelope ([1]; pretreatment: Sieved) [g/mL] | change of envelope density by compression, milling, sieving [1] | Density Absolute ([2]; pretreatment: Freeze Dried) [g/mL] | Density Absolute [2, 4] [g/mL] | Density Absolute ([2]; pretreatment: Sieved) [g/mL] | size of compacted particles versus like weights of non-densified starting materials [3] |
| --- | --- | --- | --- | --- | --- | --- | --- | --- |
| OC[C@H]1O[C@H](O[C@H]2O[C@H](CO)[C@@H](O)[C@H](O)[C@H]2O)[C@H](O)[C@@H](O)[C@@H]1O [Trehalose] | 0.3 | 0.8 | 0.5 | significant increase in envelope density | 1.5 | 1.5 | 1.5 | – |
| OC[C@H]1O[C@@H](O[C@H]2[C@H](O)[C@@H](O)C(O)O[C@@H]2CO)[C@H](O)[C@@H](O)[C@H]1O (stereo partly shown) [lactose] | – | – | – | – | – | – | – | a significant size reduction was observed |
| OC[C@@H](O)[C@@H](O)[C@H](O)[C@H](O)CO [Mannitol] | 0.3 | 0.8 | 0.5 | significant increase in envelope density | 1.5 | 1.5 | 1.5 | a significant size reduction was observed |
